# Laboratory results as given in patent US20240383954A1, “PEPTIDE INHIBITORS OF INTERLEUKIN-23 RECEPTOR AND THEIR USE TO TREAT INFLAMMATORY DISEASES” (Janssen Biotech, Inc., priority 2020, published 2024).
# Positions of bridges follow the written chain, without caps; N, C: chain ends. Non-standard residues stand in square brackets, D forms with d. Residues, ends and D or L forms follow the SMILES beside them. *: point of attachment. 2Nal = N[C@@H](Cc1ccc2ccccc2c1)C(=O)O; AEF = NCCOc1ccc(C[C@H](N)C(=O)O)cc1; Pen = CC(C)(S)[C@H](N)C(=O)O; Thp = NC1(C(=O)O)CCOCC1; X7 = Nc1cccc(N*)c1
# Target: IL-23R (Homo sapiens, UniProt Q5VWK5)
# Sequence (Q5VWK5 24-629): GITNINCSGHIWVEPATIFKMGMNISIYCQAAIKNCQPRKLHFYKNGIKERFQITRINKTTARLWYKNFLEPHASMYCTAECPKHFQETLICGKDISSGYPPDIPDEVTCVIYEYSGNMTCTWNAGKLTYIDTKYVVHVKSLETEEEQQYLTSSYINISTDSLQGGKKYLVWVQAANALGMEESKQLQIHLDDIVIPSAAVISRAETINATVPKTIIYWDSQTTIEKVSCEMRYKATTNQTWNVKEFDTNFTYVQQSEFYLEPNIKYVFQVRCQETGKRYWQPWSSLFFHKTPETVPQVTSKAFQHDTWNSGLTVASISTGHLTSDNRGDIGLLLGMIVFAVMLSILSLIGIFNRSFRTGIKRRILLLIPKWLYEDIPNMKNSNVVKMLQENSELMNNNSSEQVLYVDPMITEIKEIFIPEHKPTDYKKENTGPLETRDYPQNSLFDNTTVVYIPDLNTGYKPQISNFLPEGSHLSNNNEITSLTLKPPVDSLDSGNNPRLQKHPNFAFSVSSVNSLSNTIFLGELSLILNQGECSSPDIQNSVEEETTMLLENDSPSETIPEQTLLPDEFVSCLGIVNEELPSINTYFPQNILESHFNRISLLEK
# Test: cell-based
# Conditions: PBMC pSTAT3 IC50 (nM), PBMCs from healthy donors, IL-23 5 ng/mL, 30 minutes, phosphorylated STAT3
# 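Further: cryopreserved PBMCs stimulated at 37 °C in 5% CO2, then lysed, with phosphorylated STAT3 quantified in lysates using a phospho-STAT panel kit.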
row,SMILES,IC50 [nM]
1,"CC(=O)NCCCC[C@H](NC(=O)[C@](C)(CCCCN)NC(=O)[C@H](Cc1ccc2ccccc2c1)NC(=O)[C@H](Cc1ccc(OCCN)cc1)NC(=O)[C@]1(C)CSSC[C@H](NC(C)=O)C(=O)N[C@@H](CC(N)=O)C(=O)N[C@@H]([C@@H](C)O)C(=O)N[C@@H](Cc2c[nH]c3c(C)cccc23)C(=O)N[C@@H](CCC(N)=O)C(=O)N1)C(=O)N[C@@H](CC(N)=O)C(=O)N[C@@](C)(Cc1ccccc1)C(N)=O [Compound 119, Ac-[Cys]-N-T-[W(7-Me)]-Q-[aMeCys]-Phe[4-(2-aminoethoxy)]-[2-Nal]-[a-MeLys]-[Lys(Ac)]-N-[a-MePhe]-NH2]",5.3
2,"CC(=O)NCCCC[C@@H]1NC(=O)[C@H](Cc2c[nH]c3c(C)cccc23)NC(=O)[C@H]([C@@H](C)O)NC(=O)[C@H](CC(N)=O)NC(=O)[C@@H](NC(C)=O)C(C)(C)SSC(C)(C)[C@@H](C(=O)N[C@@H](Cc2ccc(OCCN)cc2)C(=O)N[C@@H](Cc2ccc3ccccc3c2)C(=O)N[C@@](C)(CCCCN)C(=O)N[C@@H](CCCCNC(C)=O)C(=O)N[C@@H](CC(N)=O)C(=O)N[C@H](C(N)=O)[C@H](C)c2ccccc2)NC1=O [Compound 312, MeCO-Pen-N-T-7MeTrp-K(Ac)-Pen-AEF-2Nal-aMeK-K(Ac)-N-bMePhe(S,R)-CONH2]",90
3,"CC(=O)N[C@H](CCCNC(=N)N)C(=O)N[C@@H]1C(=O)N[C@@H](CCC(N)=O)C(=O)N[C@@H]([C@@H](C)O)C(=O)N[C@@H](Cc2c[nH]c3ccccc23)C(=O)N[C@@H](CCC(N)=O)C(=O)N[C@H](C(=O)N[C@@H](Cc2ccc(OCCN)cc2)C(=O)N[C@@H](Cc2ccc3ccccc3c2)C(=O)NC2(C(=O)N[C@@H](CCC(=O)O)C(=O)N[C@@H](CC(N)=O)C(=O)N[C@@H](CC(=O)Nc3cccc(N)c3)C(N)=O)CCOCC2)C(C)(C)SSC1(C)C [Compound 130, Ac-[(D)Arg]-[Pen]-Q-T-W-Q-[Pen]-Phe[4-(2-aminoethoxy)]-[2-Nal]-[THP]-E-N-[(N-(3-aminophenyl))Asn]-NH2] (Ac-[dR][Pen]QTWQ[Pen][AEF][2Nal][Thp]END(X7)-NH2; disulfide 2-7)",9.2
4,"CC(=O)NCCCC[C@@H]1NC(=O)[C@H](Cc2c[nH]c3c(C)cccc23)NC(=O)[C@H]([C@@H](C)O)NC(=O)[C@H](CC(N)=O)NC(=O)[C@@H](NC(C)=O)C(C)(C)SSC(C)(C)[C@@H](C(=O)N[C@@H](Cc2ccc(OCCN)cc2)C(=O)N[C@@H](Cc2ccc3ccccc3c2)C(=O)NC2(C(=O)N[C@@H](CCCCNC(=O)C(C)(C)C)C(=O)N[C@@H](CC(N)=O)C(=O)NC3(C(N)=O)CCOCC3)CCOCC2)NC1=O [Compound 141, Ac-[Pen]-N-T-[W(7-Me)]-[Lys(Ac)]-[Pen]-Phe[4-(2-aminoethoxy)]-[2-Nal]-[THP]-[Lys(COtBu)]-N-[THP]-NH2]",3.7
5,"COc1ccc(C[C@@H](NC(=O)[C@H](CC(N)=O)NC(=O)[C@](C)(CCC(=O)O)NC(=O)C2(NC(=O)[C@H](Cc3ccc4ccccc4c3)NC(=O)[C@H](Cc3ccc(OCCN)cc3)NC(=O)[C@@H]3CSCC[C@H](NC(=O)[C@@H](CCCNC(=N)N)NC(C)=O)C(=O)N[C@@H](CCC(N)=O)C(=O)N[C@@H]([C@@H](C)O)C(=O)N[C@@H](Cc4c[nH]c5ccccc45)C(=O)N[C@@H](CCC(N)=O)C(=O)N3)CCOCC2)C(N)=O)cc1OC [Compound 79, Ac-[(D)Arg]-[Abu]-Q-T-W-Q-[Cys]-Phe[4-(2-aminoethoxy)]-[2-Nal]-[THP]-[aMeGlu]-N-[(D)Phe(3,4-diOMe)]-NH2]",25
6,"CC(=O)N[C@H](CCCNC(=N)N)C(=O)N[C@H]1CCSC[C@@H](C(=O)N[C@@H](Cc2ccc(OCCN)cc2)C(=O)N[C@@H](Cc2ccc3ccccc3c2)C(=O)NC2(C(=O)N[C@@](C)(CCC(=O)O)C(=O)N[C@@H](CC(N)=O)C(=O)N[C@@H](Cc3ccc(C(N)=O)cc3)C(N)=O)CCOCC2)NC(=O)[C@H](CCC(N)=O)NC(=O)[C@H](Cc2c[nH]c3ccccc23)NC(=O)[C@H]([C@@H](C)O)NC(=O)[C@H](CCC(N)=O)NC1=O [Compound 34, Ac-[(D)Arg]-[Abu]-Q-T-W-Q-[Cys]-Phe[4-(2-aminoethoxy)]-[2-Nal]-[THP]-[aMeGlu]-N-[Phe(4-CONH2)]-NH2]",5.8
